Data taken from patent publication US20250313879A1, “Fluorescent Probe for Detecting Peptide Bond Hydrolase” (The University of Tokyo, priority 2022, published 2025).
In brackets after ≈: the same amount, converted by molar mass.

How the values were obtained:
[1] = system: aminopeptidase activity in human plasma sample; experiment: Enzyme activity assay in microdevice with human plasma, aminopeptidase probes; type: biochemical; conditions: 50 μM probe, 37° C. for 2 hours
Protocol: • 1. Ala-sHMRG as a fluorescent probe for detecting aminopeptidase activity was diluted with an assay buffer to 100 μM. The composition of the assay buffer is 100 mM HEPES-NaOH (pH 7.4), 1 mM MgCl2, 0.1% BSA, 1 mM DTT, 1 mM Triton X-100, • 2. Next, a human plasma sample was diluted by 500 times with the above assay buffer, and mixed in an equal amount with the diluted solution of the probe. At this time, the final concentrations of both are 50 μM for Ala-sHMRG and 1,000 fold dilution for the human plasma sample. • 3. The mixed solution of both was then added to a microdevice, followed by the addition of sealing oil to enclose the solution in each well. • 4. The microdevice in which the solution was enclosed was incubated at 37° C. for 4 hours, and then the fluorescence intensity of each well was measured with a fluorescence microscope.
• 1. Leu-sHMRG as a fluorescent probe for detecting aminopeptidase activity was diluted with an assay buffer to 100 μM. The composition of the assay buffer is 100 mM HEPES-NaOH (pH 7.4), 1 mM MgCl2, 1 mM DTT, 3 mM Triton X-100. • 2. Next, a human plasma sample was diluted by 2,500 times with the above assay buffer, and mixed in an equal amount with the diluted solution of the probe. At this time, the final concentrations of both are 50 μM for Leu-sHMRG and 5,000 fold dilution for the human plasma sample. • 3. The mixed solution of both was then added to a microdevice, followed by the addition of sealing oil to enclose the solution in each well. • 4. The microdevice in which the solution was enclosed was incubated at 37° C. for 4 hours, and then the fluorescence intensity of each well was measured with a fluorescence microscope.
(§1) • 5. Met-sHMRG as a fluorescent probe for detecting aminopeptidase activity was diluted with an assay buffer to 100 μM. The composition of the assay buffer is 100 mM HEPES-NaOH (pH 7.4), 1 mM MgCl2, 1 mM CaCl2, 1 mM DTT, 3 mM Triton X-100. • 6. Next, a human plasma sample was diluted by 500 times with the above assay buffer, and mixed in an equal amount with the diluted solution of the probe. At this time, the final concentrations of both are 50 μM for Met-sHMRG and 1,000 fold dilution for the human plasma sample. • 7. The mixed solution of both was then added to a microdevice, followed by the addition of sealing oil to enclose the solution in each well. • 8. The microdevice in which the solution was enclosed was incubated at 37° C. for 2 hours, and then the fluorescence intensity of each well was measured with a fluorescence microscope.
as §1, with “• 9. Tyr-sHMRG” for “• 5. Met-sHMRG”, “• 10.” for “• 6.”, “for Tyr-sHMRG” for “for Met-sHMRG”, “• 11.” for “• 7.”, “• 12.” for “• 8.”, “for 4” for “for 2”
• 1. Lys-sHMRG as a fluorescent probe for detecting aminopeptidase activity was diluted with an assay buffer to 100 μM. The composition of the assay buffer is 100 mM HEPES-NaOH (pH 7.4), 1 mM MgCl2, 1 mM CaCl2, 1 mM DTT, 3 mM Triton X-100. • 2. Next, a human plasma sample was diluted by 10,000 times with the above assay buffer, and mixed in an equal amount with the diluted solution of the probe. At this time, the final concentrations of both are 50 μM for Lys-sHMRG and 20,000 fold dilution for the human plasma sample. • 3. […]

[2] = system: CD13; experiment: Diagnostic experiment of pancreatic cancer utilizing single-molecule enzyme activity of CD13; type: biochemical, human; conditions: patients with pancreatic cancer compared with healthy subjects; 50 μM probe, plasma 20,000 fold dilution, 37° C. 2 hours
Protocol: In order to detect the single-molecule enzyme activity of CD13, an experiment to verify the availability of a probe to which […] is bonded as a reaction point (in General Formula (I) or (II), an alanine residue was introduced as —CO—R0 or —CO—R^10) to detect a pancreatic cancer biomarker was performed in the following procedures. • 1. Ala-sSiR as a CD13 detecting probe was diluted with an assay buffer to 100 μM. The composition of the assay buffer is 100 mM HEPES-NaOH (pH 7.4), 1 mM MgCl2, 1 mM CaCl2), 1 mM DTT, 3 mM Triton X-100. • 2. Next, human plasma samples collected from 30 patients with pancreatic cancer and 30 healthy subjects were each diluted by 10,000 times with the above assay buffer, and mixed in an equal amount with the diluted solution of Ala-sSiR. […] The microdevice in which the solution was enclosed was incubated at 37° C. for 2 hours, and then the fluorescence intensity of each well was measured with a fluorescence microscope.
Specifically, in this example, an ROC curve for determination based on the enzyme activity of CD13 determined based on the proportion of wells with a luminance of 2500 AU or more is created, and when a threshold is subtracted at the time when the number of wells of a signal is 3%, the sensitivity is 27% and the specificity is 100% (the right view of FIG. 3). […]

[3] = target: T1, aminopeptidase A (Homo sapiens, UniProt Q07075); experiment: Signal/noise ratio of enzymolysate in microdevice; type: biochemical
T1 sequence (Q07075 whole entry, species assumed): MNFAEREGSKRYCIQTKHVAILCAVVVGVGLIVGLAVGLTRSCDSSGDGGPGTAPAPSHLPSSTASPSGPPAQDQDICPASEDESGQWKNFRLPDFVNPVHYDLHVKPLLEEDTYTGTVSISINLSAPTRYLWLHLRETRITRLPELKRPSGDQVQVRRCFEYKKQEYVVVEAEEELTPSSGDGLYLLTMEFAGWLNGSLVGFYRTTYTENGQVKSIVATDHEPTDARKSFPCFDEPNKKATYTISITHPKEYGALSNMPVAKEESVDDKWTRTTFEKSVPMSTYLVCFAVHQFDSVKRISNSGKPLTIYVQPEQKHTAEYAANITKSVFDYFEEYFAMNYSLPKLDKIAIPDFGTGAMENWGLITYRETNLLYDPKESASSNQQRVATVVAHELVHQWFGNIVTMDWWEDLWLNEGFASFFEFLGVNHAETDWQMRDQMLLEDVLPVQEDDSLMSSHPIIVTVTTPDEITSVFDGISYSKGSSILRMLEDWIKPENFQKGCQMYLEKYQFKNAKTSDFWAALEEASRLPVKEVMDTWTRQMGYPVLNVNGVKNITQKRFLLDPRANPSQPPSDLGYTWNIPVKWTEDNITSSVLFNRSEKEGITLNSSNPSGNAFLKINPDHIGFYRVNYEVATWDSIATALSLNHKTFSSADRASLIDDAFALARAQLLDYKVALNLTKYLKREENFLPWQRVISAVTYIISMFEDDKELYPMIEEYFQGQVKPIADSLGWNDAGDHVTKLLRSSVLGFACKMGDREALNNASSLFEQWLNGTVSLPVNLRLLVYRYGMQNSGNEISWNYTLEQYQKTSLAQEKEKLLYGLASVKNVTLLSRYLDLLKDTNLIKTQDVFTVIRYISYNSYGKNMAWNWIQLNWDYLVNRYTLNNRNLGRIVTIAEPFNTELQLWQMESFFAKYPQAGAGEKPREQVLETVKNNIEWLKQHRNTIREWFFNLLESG
Protocol: (§2) For two types of compounds Glu-sSiR (PB206/Example 12) and GP-sHMRG (PB109/Example 7), the signal/noise ratios of the enzymolysates before and after the enzyme reaction in the cuvette and the microdevice were each measured as follows. In the following experiments, the composition of the assay buffer is 100 mM HEPES-NaOH (pH 7.4), 1 mM MgCl2, 1 mM CaCl2), […].
For Glu-sSiR, three kinds of solutions of (i) only an assay buffer, (ii) 30 μM of Glu-sSiR, and (iii) 30 μM of Glu-sSiR and 0.2 ng/mL of aminopeptidase A were prepared, and each solution was added to a microdevice, followed by the addition of sealing oil to enclose the solution in each well. The microdevice in which the solution was enclosed was incubated at 37° C. for 4 hours, and then the fluorescence intensity of each well was measured with a fluorescence microscope. When a difference between the average values of the fluorescence intensities of the respective wells in (ii) and (i) was defined as noise, a difference between the average value of the fluorescence intensities of the wells in which the enzyme was encapsulated in (iii) and the average value of the fluorescence intensities of the respective wells in (i) was defined as a signal, and a ratio of these values was calculated as the signal/noise ratio of the enzymolysate, the ratio was 8.3 times (see FIG. 8, panel A). […]

[4] = target: T1, aminopeptidase A; experiment: Signal/noise ratio of enzymolysate in cuvette; type: biochemical; conditions: 10 μM probe, 170 ng/mL aminopeptidase A, 25° C. 11 hours, @616 nm
Protocol: as §2
Glu-sSiR was diluted with an assay buffer so as to be 10 μM, then added to a quartz cuvette, and the fluorescence spectrum before the enzyme reaction was measured with a fluorometer (excitation wavelength: 570 nm). Thereafter, aminopeptidase A was added so that the concentration in the solution was 170 ng/mL, the solution was incubated at 25° C. for 11 hours, and then the fluorescence spectrum was measured. The fluorescence spectra before and after the enzyme reaction were compared, the ratio of the values at a wavelength at which the fluorescence intensity was maximized was calculated as the signal/noise ratio of the enzymolysate, the ratio was 32 times (@616 nm) (see FIG. 7A).

[5] = Solubility in sealing oil (hexadecane); type: physicochemical; conditions: oil or lipid, kinetic from dmso stock, room temperature (25° C.), three tests, average value±standard deviation
Protocol: That is, 1 μL of a 10 mM DMSO solution of the test compound was added with respect to 100 μL of hexadecane as sealing oil, and the mixture was sonicated and suspended at room temperature (25° C.) for 1 minute. Thereafter, the solution was centrifuged for 30 seconds, 50 μL of the supernatant was collected and mixed with 100 μL of methanol, and a compound dissolved in hexadecane was extracted. Thereafter, the methanol solution from which the compound was extracted was analyzed by ultra performance liquid chromatography (UPLC) (eluent: A/B=95/5>5/95, A: 0.1% formic acid-containing 100% H2O, B: 0.1% formic acid-containing 100% CH3CN), and the concentration of the compound in the methanol solution was calculated from the peak area. In the calculation of the solution concentration using the UPLC peak area, solutions having a plurality of concentrations were prepared and measured for each compound, then a calibration curve was prepared (FIG. 5), and the calculation was performed according to the calibration curve.

Structure (SMILES) | fluorescence intensity of wells in which the reacting enzyme was enclosed ([1]; human plasma 20,000 fold dilution) | number of wells in which the luminance is 2,500 AU or more (CD13 considered enclosed) [2] | fluorescence intensity of wells in which the reacting enzyme was enclosed ([1]; human plasma 1,000 fold dilution) | ratio of the signal/noise ratio in the microdevice to the signal/noise ratio in the cuvette ([3]; aminopeptidase A) | signal/noise ratio of the enzymolysate ([3]; microdevice, 30 μM probe, 0.2 ng/mL aminopeptidase A, 37° C. 4 hours) [times] | signal/noise ratio of the enzymolysate [4] [times] | solubility at 1 min [5] [µM]
Cc1ccc(S(=O)(=O)O)cc1C1=C2C=CC(=N)C=C2[Si](C)(C)c2cc(NC(=O)[C@H](C)N)ccc21 [Ala-sSiR] | increase in fluorescence intensity was observed | significant increase |  |  |  |  | 
Cc1ccc(S(=O)(=O)O)cc1C1=C2C=CC(=N)C=C2[Si](C)(C)c2cc(NC(=O)[C@@H](N)CCC(=O)O)ccc21 [Glu-sSiR] |  |  | increase in fluorescence intensity was observed | 0.26 | 8.3 | 32 | 0.3 ± 0.096 (≈ 0.166 µg/mL)
